# Test results published in patent US20230407296A1, “Method to Regulate ALOX12-AS1 IncRNA-Mediated Alteration of ALOX12 Protein and to Screen for Novel Drugs to Alter ALOX12 Protein Level” (priority 2021, published 2023).
# Assays:
# THP-1 cells = assay: TPA-induced differentiation of THP-1 cells to macrophage-like cells (ITGAM immunoblot, CD68 immunofluorescence); assay type: cell-based, human; conditions: 100 nM TPA
# Method: Phorbol ester (12-O-Tetradecanoylphorbol 13-acetate: TPA) is an activator of protein kinase C (PKC) that has been frequently used for inducing the differentiation of different cell types, including myeloid cells. Activation of human monocytic cells affects ALOX expression. Therefore, we induced differentiation of monocytic THP-1 cells to macrophage-like cells (MLCs) with 100 nM TPA [91, 92] and monitored the ALOX12 protein level as well as nucleo-cytoplasmic translocation of ALOX12-AS1-201. […] We concurrently monitored expression of the integrin subunit a M (ITGAM), also known as CD11b, which regulates myeloid cell polarization and is expressed in macrophages to facilitate adhesion, migration, chemotaxis, and accumulation during inflammation. […] CD68 is a transmembrane glycoprotein that is mainly located in the endosomal/lysosomal compartment but can rapidly shuttle to the cell surface in myeloid cells. […] Based on these observations, we performed nuclear and cytoplasmic fractionation at 72 hours of TPA treatment.
# Relative quantification of proteins was performed as described previously. […] The immunoblots were imaged using a ChemiDoc XRS+ system (Bio-Rad) and band intensities were quantified using ImageJ (version 1.48) Software. […]
# ALOX12-AS1-202 = assay: Multiplex RT-PCR of ALOX12-AS1-202 in TPA-treated THP-1 derived MLCs; assay type: cell-based, human; conditions: TPA treated (72 hours) MLCs vs vehicle treated THP-1 cells
# Method: (§1) Phorbol ester (12-O-Tetradecanoylphorbol 13-acetate: TPA) is an activator of protein kinase C (PKC) that has been frequently used for inducing the differentiation of different cell types, including myeloid cells. Activation of human monocytic cells affects ALOX expression. Therefore, we induced differentiation of monocytic THP-1 cells to macrophage-like cells (MLCs) with 100 nM TPA [91, 92] and monitored the ALOX12 protein level as well as nucleo-cytoplasmic translocation of ALOX12-AS1-201. […] We concurrently monitored expression of the integrin subunit a M (ITGAM), also known as CD11b, which regulates myeloid cell polarization and is expressed in macrophages to facilitate adhesion, migration, chemotaxis, and accumulation during inflammation. […]
# (§2) Total RNA from different cell lines was extracted with Trizol reagent (Catalog number: 15596026; ThermoFisher Scientific, Canada) as per the manufacturer's recommended protocol. […] Absolute quantification of ALOX12-AS1 lncRNA isoforms was performed in a Mastercycler®ep realplex real-time PCR system (Eppendorf, Hamburg, Germany) using SYBR green dye (Catalog number: S7563; ThermoFisher Scientific). […] Real-time PCR data quality control calculations were determined by the SAS program as described previously and the calculated PCR efficiency was between 95%-99%. […] Results were expressed as copy number of specific isoforms per 100 ng of total RNA.
# ALOX12 AS1-201 = assay: Multiplex RT-PCR of ALOX12-AS1-201 in TPA-treated THP-1 derived MLCs; assay type: cell-based, human; conditions: TPA treated (72 hours) MLCs vs vehicle treated THP-1 cells
# Method: as §1, §2
# ALOX12 mRNA [1] = assay: Multiplex RT-PCR of ALOX12 mRNA in TPA-treated THP-1 derived MLCs; assay type: cell-based, human; conditions: TPA treated (72 hours) MLCs vs vehicle treated THP-1 cells
# Method: as §1, §2
# ALOX12 mRNA [2] = conditions: A431 cells, time-dependent; cited from earlier work
smiles,measurement,setting,value
"CCCCCCCCCCCCCC(=O)O[C@@H]1[C@@H](C)[C@@]2(O)[C@@H](C=C(CO)C[C@]3(O)C(=O)C(C)=C[C@@H]23)[C@@H]2C(C)(C)[C@]12OC(C)=O [TPA, 12-O-Tetradecanoylphorbol 13-acetate]",ITGAM expression,THP-1 cells; immunoblot,expressed at 72 hours
same,CD68 expression and localization,THP-1 cells; immunofluorescence,gradually increasing expression and translocation of CD68 to endosomal structures
same,ALOX12-AS1-202 level,ALOX12-AS1-202,dramatic reduction
same,ALOX12 AS1-201 level,ALOX12 AS1-201,relatively unaltered
same,ALOX12 mRNA level,ALOX12 mRNA [1],relatively unaltered
same,expression of ALOX12 mRNA,ALOX12 mRNA [2],increased
